According to US20230286919A1, “ISOQUINOLINE DERIVATIVES FOR USE IN THERAPY” (Vestlandets Innovasjonsselskap AS, priority 2020, published 2023):

Tested on: LNCaP tumours
Test: Antitumor activity in vivo, LNCaP xenograft
Details: IP daily for three weeks
Method: Four-week-old male BALB/c-nu nude mice (15-20 g) were obtained from the Shanghai BiKai Laboratory Animal Co., Ltd. (Shanghai, China). The animals were maintained under specific pathogen-free conditions with food and water supplied ad libitum in the Laboratory Animal Center of the Second Military Medical University. All animal experiments were carried out in accordance with the Guide for the Care and Use of Laboratory Animals of the National Institutes of Health and were approved by the Committee on the Ethics of Animal Experiments of the Second Military Medical University, China. LNCaP cells were harvested and re-suspended in PBS. A total of 5×10^6 cells were subcutaneously injected into the right flank. Tumour volume was calculated using the following formula: V=(L×[…])/2, where L is the length and W is the width of the tumour nodules measured with vernier callipers. Once the volume of the tumours reached 75-100 mm^3, the mice were randomly divided into three groups (n=6). […] Body weights and tumour volumes were measured before each drug injection. […]
The mice were treated daily for three weeks with IP injections of either vehicle (olive oil) or compound 323-2 (20 mg/kg or 40 mg/kg in the vehicle). Body weights and tumour volumes were measured before each drug injection. […]

## C[C@@H]1CCC(c2cc3c4c(cncc4c2)[C@@H](C)C3)=C1C=O [323-2, (15S,2R)-Delavatine A]
20 mg/kg or 40 mg/kg, especially high dose
  CRPC tumour growth: significantly inhibited CRPC tumour growth
20 or 40 mg/kg
  Body weight change: No significant body weight change
